According to PMC2248166, “Quantitative peptide binding motifs for 19 human and mouse MHC class I molecules derived using positional scanning combinatorial peptide libraries” (Immunome Research, 2008):
Where a SMILES comes first, the peptide text is derived from it.

What was measured:
Test in all cases: biochemical
Type in all cases: binding
HLA A*3001 = HLA A*3001 (Homo sapiens, UniProt P04439, D140H/D185E/E176W/F33S/G80R/H175R/K168Q/R138E/R41S)
HLA B*1501 = HLA B*1501 (Homo sapiens, UniProt P01889, A329T/A93T/A95T/C349S/D201E/D98Y/E187L/E204Q/E69M/E70A/K202T/N87E/Q94N/R155S/R180W/S121R/S35A/S48A/V306I/V36M/Y140S/Y91S)
HLA B*1503 = HLA B*1503 (Homo sapiens, UniProt P01889, A329T/A93T/A95T/C349S/D201E/D98Y/E187L/E204Q/K202T/N87E/Q94N/R155S/R180L/S121R/S35A/V306I/V36M/Y140S/Y91S)

Sequence of HLA A*3001 (P04439 25-365 limits assumed, stated change not applied): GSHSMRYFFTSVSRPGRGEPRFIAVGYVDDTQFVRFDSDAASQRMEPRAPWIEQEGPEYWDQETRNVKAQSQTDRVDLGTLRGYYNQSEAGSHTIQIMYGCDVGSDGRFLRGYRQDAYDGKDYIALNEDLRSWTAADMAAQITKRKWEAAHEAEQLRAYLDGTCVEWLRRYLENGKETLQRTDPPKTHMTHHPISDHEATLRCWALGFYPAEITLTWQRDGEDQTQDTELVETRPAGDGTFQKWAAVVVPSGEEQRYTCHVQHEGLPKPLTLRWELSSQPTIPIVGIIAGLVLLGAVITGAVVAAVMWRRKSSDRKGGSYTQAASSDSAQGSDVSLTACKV

Structure (SMILES) | IC50 (HLA A*3001) [nM] | IC50 (HLA B*1501) [nM] | IC50 (HLA B*1503) [nM]
CC[C@H](C)[C@H](NC(=O)[C@H](CO)NC(=O)[C@@H](N)CCCCN)C(=O)N[C@@H](CCC(=O)O)C(=O)N[C@@H](CCC(N)=O)C(=O)N[C@@H](Cc1c[nH]cn1)C(=O)N1CCC[C@H]1C(=O)N[C@H](C(=O)N[C@H](C(=O)O)C(C)C)C(C)C [3102.0246] (H-KSIEQHPVV-OH) | 2.7 | 71 | –
CC(C)C[C@H](NC(=O)[C@@H](NC(=O)[C@H](CO)NC(=O)[C@H](CCCCN)NC(=O)[C@@H](NC(=O)[C@@H](N)Cc1c[nH]cn1)C(C)C)[C@@H](C)O)C(=O)N[C@@H](CC(N)=O)C(=O)N[C@@H](CC(N)=O)C(=O)N[C@@H](C)C(=O)O [3102.0217] (H-HVKSTLNNA-OH) | 1.2 | 367 | –
CC(C)[C@H](NC(=O)[C@H](Cc1ccccc1)NC(=O)CNC(=O)[C@H](Cc1c[nH]cn1)NC(=O)[C@H](CC(N)=O)NC(=O)[C@H](CCC(N)=O)NC(=O)[C@@H](N)Cc1ccc(O)cc1)C(=O)N[C@@H](CO)C(=O)N[C@@H](Cc1ccccc1)C(=O)O [3102.1231] (H-YQNHGFVSF-OH) | – | 0.17 | 2.4
CC(C)C[C@H](NC(=O)[C@H](CO)NC(=O)[C@H](CO)NC(=O)CNC(=O)[C@H](CO)NC(=O)[C@H](CCCCN)NC(=O)[C@H](C)NC(=O)[C@H](CCC(N)=O)NC(=O)[C@@H](N)CC(C)C)C(=O)O [3102.1276] (H-LQAKSGSSL-OH) | – | 4.6 | 0.33
CSCC[C@H](NC(=O)[C@@H](N)C(C)C)C(=O)N[C@H](C(=O)N[C@H](C(=O)N[C@@H](CO)C(=O)N[C@@H](CCCCN)C(=O)N1CCC[C@H]1C(=O)N[C@@H](CC(C)C)C(=O)N[C@@H](Cc1ccccc1)C(=O)O)[C@@H](C)O)C(C)C [3102.1148] (H-VMVTSKPLF-OH) | – | 16 | 8.8
CC[C@H](C)[C@H](NC(=O)[C@H](Cc1ccc(O)cc1)NC(=O)[C@H](C)NC(=O)[C@H](C)NC(=O)[C@H](Cc1c[nH]cn1)NC(=O)[C@H](CO)NC(=O)[C@@H](N)CCCCN)C(=O)N[C@@H](CC(=O)O)C(=O)N[C@@H](Cc1ccc(O)cc1)C(=O)O [3102.0209] (H-KSHAAYIDY-OH) | 12 | 1.8 | 1.7
CC[C@H](C)[C@H](NC(=O)[C@H](Cc1c[nH]cn1)NC(=O)[C@H](CCC(N)=O)NC(=O)[C@H](CO)NC(=O)[C@H](CCC(=O)O)NC(=O)[C@@H](N)CC(C)C)C(=O)N[C@H](C(=O)N[C@@H](CO)C(=O)N[C@@H](Cc1ccccc1)C(=O)O)[C@@H](C)CC [3102.1322] (H-LESQHIISF-OH) | – | 57 | 28
CSCC[C@H](NC(=O)[C@H](CO)NC(=O)[C@H](CCSC)NC(=O)[C@@H](N)CCSC)C(=O)N[C@@H](Cc1ccc(O)cc1)C(=O)NCC(=O)N[C@@H](CCCCN)C(=O)N[C@@H](C)C(=O)N[C@@H](Cc1ccccc1)C(=O)O [3102.1173] (H-MMSMYGKAF-OH) | – | 3.2 | 2.6
CC(C)[C@H](NC(=O)[C@H](CCC(N)=O)NC(=O)[C@@H](N)CO)C(=O)N[C@@H](CCCCN)C(=O)N[C@@H](CS)C(=O)N[C@@H](CS)C(=O)N[C@@H](Cc1c[nH]cn1)C(=O)N[C@@H](Cc1ccc(O)cc1)C(=O)N[C@@H](Cc1ccccc1)C(=O)O [3102.1126] (H-SQVKCCHYF-OH) | – | 0.92 | 0.92
CC[C@H](C)[C@H](NC(=O)[C@H](CO)NC(=O)[C@@H](N)CC(C)C)C(=O)N[C@@H](CC(N)=O)C(=O)N[C@@H](CO)C(=O)N[C@@H](CO)C(=O)N[C@@H](Cc1ccccc1)C(=O)N[C@@H](Cc1ccc(O)cc1)C(=O)N[C@@H](Cc1ccccc1)C(=O)O [3102.1034] (H-LSINSSFYF-OH) | – | 1 | 4.8
